In ChEMBL document CHEMBL1201862, “PubChem BioAssay data set” (2004):
The source made the active and inactive calls.

Columns and labels:
[1] = biological target: T1, Sentrin-specific protease 8 (Homo sapiens, UniProt Q96LD8); assay type: functional;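 also: luminescence read-out of SENP8 inhibition, dose-response confirmation following an ultra-high-throughput screen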
T1 sequence (Q96LD8 whole entry): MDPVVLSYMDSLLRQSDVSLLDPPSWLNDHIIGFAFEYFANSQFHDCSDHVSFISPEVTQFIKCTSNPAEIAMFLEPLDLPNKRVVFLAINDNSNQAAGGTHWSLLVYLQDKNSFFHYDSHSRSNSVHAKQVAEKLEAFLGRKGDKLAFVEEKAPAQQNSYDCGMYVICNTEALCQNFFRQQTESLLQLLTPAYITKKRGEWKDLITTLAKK

[2] = biological target: T2, Caspase-3 (Homo sapiens, UniProt P42574); assay type: functional;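 also: Dose-response selectivity test against caspase-3 for candidate inhibitors of sentrin-specific proteases (SENPs)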
T2 sequence (P42574 whole entry): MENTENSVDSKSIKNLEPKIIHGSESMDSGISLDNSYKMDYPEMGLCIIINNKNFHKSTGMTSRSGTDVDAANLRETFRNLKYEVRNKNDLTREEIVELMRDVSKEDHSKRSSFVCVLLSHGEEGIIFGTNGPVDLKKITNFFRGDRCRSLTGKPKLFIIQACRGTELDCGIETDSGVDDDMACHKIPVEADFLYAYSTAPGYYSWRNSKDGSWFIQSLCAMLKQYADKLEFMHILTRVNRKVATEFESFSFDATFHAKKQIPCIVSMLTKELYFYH

[3] = biological target: T3, Sentrin-specific protease 6 (Homo sapiens, UniProt Q9GZR1); assay type: functional;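 also: Luminescence-based dose-response confirmatory assay of SENP6 inhibition, following up an ultra-high-throughput screen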
T3 sequence (Q9GZR1 whole entry): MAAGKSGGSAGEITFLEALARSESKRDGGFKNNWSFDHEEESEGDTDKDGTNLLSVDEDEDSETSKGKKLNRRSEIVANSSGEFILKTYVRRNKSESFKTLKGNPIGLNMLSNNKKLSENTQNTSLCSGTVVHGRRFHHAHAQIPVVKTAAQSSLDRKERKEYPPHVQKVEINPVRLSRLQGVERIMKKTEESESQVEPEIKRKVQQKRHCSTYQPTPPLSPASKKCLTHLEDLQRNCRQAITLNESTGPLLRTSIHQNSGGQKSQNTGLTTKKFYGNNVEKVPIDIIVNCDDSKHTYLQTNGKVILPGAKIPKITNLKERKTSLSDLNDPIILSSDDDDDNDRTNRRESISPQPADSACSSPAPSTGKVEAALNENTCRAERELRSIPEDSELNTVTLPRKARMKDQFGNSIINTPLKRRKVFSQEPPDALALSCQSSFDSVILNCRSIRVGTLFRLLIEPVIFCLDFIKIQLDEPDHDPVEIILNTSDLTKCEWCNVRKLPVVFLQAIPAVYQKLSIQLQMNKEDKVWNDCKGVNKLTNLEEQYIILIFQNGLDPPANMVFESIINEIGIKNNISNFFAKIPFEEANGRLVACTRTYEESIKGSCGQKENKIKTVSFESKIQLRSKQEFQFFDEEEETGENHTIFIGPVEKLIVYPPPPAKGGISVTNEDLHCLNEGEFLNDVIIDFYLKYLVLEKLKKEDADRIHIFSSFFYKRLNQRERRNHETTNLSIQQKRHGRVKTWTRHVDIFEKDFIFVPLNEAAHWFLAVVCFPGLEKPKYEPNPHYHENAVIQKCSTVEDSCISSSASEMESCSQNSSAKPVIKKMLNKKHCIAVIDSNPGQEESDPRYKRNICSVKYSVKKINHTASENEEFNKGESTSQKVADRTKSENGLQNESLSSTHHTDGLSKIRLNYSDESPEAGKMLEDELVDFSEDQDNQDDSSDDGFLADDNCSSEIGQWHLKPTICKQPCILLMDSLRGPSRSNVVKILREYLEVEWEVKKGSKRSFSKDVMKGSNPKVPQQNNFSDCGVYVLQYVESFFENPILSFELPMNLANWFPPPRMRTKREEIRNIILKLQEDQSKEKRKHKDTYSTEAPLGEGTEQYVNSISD

[4] = biological target: T4, Sentrin-specific protease 7 (Homo sapiens, UniProt Q9BQF6); assay type: functional;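 also: Luminescence-based dose-response confirmation of ultra-high-throughput screening hits, measuring inhibition of SENP7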
T4 sequence (Q9BQF6 whole entry): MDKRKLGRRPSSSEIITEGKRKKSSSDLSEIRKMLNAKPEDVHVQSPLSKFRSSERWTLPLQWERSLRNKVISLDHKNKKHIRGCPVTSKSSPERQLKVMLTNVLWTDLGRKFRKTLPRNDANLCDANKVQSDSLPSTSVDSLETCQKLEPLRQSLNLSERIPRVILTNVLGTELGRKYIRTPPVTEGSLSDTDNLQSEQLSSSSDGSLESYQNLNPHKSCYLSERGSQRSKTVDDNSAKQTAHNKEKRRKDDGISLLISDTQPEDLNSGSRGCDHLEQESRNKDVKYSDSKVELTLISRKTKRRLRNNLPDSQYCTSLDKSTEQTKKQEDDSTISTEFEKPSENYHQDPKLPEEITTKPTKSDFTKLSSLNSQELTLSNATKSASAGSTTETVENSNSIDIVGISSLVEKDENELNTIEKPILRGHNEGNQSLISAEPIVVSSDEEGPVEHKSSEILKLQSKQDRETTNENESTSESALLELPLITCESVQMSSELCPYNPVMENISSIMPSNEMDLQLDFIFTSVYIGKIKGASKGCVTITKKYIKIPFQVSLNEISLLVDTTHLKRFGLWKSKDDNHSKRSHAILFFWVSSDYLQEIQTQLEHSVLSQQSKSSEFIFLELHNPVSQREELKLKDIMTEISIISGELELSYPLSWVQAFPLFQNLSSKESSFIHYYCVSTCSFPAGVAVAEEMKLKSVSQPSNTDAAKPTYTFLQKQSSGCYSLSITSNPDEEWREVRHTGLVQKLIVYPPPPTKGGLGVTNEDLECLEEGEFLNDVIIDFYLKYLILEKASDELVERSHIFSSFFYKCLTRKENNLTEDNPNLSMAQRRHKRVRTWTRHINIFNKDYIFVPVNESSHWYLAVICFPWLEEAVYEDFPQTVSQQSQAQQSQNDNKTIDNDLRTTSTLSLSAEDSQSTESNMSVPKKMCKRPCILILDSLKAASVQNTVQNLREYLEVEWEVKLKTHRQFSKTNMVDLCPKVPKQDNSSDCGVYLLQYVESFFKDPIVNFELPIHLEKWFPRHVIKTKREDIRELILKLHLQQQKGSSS

[5] = biological target: T5, Heat shock factor protein 1 (Mus musculus, UniProt P38532); assay: HSF1 potentiators in luciferase reporter cells, confirmation, cell-based, NIH3T3, luminescence, dose retest (AID 435004); assay type: functional;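 also: stress induced by proteasome inhibitor MG132 added 30 min after compound; luciferase reporter driven by HSF1 response element in NIH3T3 cells; actives raise luminescence as potentiators of the MG132 stress response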
T5 sequence (P38532 whole entry): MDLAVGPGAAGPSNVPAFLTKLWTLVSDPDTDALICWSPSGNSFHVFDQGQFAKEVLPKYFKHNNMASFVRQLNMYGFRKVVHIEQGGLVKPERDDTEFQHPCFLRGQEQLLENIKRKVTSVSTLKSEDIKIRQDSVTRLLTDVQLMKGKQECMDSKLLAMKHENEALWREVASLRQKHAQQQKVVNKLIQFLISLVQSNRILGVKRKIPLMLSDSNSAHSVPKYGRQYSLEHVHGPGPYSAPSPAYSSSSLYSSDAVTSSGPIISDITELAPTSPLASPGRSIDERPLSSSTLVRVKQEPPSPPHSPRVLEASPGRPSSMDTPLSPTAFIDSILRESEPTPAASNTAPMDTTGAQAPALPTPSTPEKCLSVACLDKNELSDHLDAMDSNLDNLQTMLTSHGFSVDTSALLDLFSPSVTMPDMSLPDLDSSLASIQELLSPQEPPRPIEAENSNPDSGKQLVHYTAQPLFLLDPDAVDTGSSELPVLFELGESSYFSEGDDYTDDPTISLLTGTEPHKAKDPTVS

[6] = cells; assay type: functional
[7] = biological target: T6, RNA-binding protein pos-1 (Caenorhabditis elegans, UniProt G5EF15); assay: inhibitors of POS-1/mex-3 RNA binding, dose response, biochemical, fluorescence polarization (AID 1964);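 also: purified POS-1 fused to maltose binding protein made in E. coli; potency of compounds blocking POS-1 binding to fluorescent RNA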
T6 sequence (G5EF15 whole entry): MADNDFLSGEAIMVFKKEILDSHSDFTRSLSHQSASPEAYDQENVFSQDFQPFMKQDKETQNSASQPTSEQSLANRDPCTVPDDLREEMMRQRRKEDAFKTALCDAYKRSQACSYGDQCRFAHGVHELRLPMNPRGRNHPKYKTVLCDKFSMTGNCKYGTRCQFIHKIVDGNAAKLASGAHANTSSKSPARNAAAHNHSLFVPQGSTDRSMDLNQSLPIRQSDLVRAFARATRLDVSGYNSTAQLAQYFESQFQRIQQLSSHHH

[8] = biological target: T7, Zinc finger protein mex-5 (Caenorhabditis elegans, UniProt Q9XUB2); assay: MEX-5/TCR-2 RNA interaction inhibitors, dose response, biochemical, C. elegans, fluorescence polarization (AID 1960)
T7 sequence (Q9XUB2 whole entry): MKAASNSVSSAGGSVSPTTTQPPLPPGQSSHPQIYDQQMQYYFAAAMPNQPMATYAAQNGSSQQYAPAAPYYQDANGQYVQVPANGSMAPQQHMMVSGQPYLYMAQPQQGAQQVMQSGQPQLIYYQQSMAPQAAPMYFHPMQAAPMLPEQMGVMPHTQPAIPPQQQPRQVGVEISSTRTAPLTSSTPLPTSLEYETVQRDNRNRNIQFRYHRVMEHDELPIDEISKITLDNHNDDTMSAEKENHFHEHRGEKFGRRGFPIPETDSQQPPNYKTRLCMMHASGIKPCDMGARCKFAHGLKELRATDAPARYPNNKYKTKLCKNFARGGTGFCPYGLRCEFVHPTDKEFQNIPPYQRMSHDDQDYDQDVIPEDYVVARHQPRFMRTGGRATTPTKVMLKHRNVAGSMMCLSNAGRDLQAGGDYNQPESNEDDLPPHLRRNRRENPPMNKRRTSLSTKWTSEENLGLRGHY

[9] = biological target: T8, Endoribonuclease toxin MazF (Escherichia coli K-12, UniProt P0AE70); assay: fluorescent RNA oligo signal without MazF, dose response, counter-screen for MazEF activator project, biochemical, fluorescence, single-stranded RNase substrate (AID 588502); assay type: functional
T8 sequence (P0AE70 whole entry): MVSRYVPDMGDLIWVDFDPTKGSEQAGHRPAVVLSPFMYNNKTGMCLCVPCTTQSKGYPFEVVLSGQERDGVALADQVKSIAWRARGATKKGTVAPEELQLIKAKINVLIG

[10] = biological target: T8, Endoribonuclease toxin MazF; assay: MazF toxin RNase activators, dose response, biochemical, fluorescence, single-stranded RNA substrate, uHTS hits (AID 588481); assay type: functional
[11] = Luminescence Cell-Based Dose Retest to Confirm Inhibitors of Cancer Stem Cells. [Related pubchem assays (depositor defined):AID2717, AID2721]; assay type: functional; settings: Homo sapiens
[12] = biological target: T9, Fatty acid synthase (Homo sapiens, UniProt P49327); assay: FAS thioesterase domain inhibitors, dose response, biochemical, kinetic fluorescence intensity (AID 624326); assay type: functional;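 also: rate of fluorescence rise from hydrolysis of a fluorogenic O-methyl fluorescein ester substrate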
T9 sequence (P49327 whole entry, the tested form may be a part): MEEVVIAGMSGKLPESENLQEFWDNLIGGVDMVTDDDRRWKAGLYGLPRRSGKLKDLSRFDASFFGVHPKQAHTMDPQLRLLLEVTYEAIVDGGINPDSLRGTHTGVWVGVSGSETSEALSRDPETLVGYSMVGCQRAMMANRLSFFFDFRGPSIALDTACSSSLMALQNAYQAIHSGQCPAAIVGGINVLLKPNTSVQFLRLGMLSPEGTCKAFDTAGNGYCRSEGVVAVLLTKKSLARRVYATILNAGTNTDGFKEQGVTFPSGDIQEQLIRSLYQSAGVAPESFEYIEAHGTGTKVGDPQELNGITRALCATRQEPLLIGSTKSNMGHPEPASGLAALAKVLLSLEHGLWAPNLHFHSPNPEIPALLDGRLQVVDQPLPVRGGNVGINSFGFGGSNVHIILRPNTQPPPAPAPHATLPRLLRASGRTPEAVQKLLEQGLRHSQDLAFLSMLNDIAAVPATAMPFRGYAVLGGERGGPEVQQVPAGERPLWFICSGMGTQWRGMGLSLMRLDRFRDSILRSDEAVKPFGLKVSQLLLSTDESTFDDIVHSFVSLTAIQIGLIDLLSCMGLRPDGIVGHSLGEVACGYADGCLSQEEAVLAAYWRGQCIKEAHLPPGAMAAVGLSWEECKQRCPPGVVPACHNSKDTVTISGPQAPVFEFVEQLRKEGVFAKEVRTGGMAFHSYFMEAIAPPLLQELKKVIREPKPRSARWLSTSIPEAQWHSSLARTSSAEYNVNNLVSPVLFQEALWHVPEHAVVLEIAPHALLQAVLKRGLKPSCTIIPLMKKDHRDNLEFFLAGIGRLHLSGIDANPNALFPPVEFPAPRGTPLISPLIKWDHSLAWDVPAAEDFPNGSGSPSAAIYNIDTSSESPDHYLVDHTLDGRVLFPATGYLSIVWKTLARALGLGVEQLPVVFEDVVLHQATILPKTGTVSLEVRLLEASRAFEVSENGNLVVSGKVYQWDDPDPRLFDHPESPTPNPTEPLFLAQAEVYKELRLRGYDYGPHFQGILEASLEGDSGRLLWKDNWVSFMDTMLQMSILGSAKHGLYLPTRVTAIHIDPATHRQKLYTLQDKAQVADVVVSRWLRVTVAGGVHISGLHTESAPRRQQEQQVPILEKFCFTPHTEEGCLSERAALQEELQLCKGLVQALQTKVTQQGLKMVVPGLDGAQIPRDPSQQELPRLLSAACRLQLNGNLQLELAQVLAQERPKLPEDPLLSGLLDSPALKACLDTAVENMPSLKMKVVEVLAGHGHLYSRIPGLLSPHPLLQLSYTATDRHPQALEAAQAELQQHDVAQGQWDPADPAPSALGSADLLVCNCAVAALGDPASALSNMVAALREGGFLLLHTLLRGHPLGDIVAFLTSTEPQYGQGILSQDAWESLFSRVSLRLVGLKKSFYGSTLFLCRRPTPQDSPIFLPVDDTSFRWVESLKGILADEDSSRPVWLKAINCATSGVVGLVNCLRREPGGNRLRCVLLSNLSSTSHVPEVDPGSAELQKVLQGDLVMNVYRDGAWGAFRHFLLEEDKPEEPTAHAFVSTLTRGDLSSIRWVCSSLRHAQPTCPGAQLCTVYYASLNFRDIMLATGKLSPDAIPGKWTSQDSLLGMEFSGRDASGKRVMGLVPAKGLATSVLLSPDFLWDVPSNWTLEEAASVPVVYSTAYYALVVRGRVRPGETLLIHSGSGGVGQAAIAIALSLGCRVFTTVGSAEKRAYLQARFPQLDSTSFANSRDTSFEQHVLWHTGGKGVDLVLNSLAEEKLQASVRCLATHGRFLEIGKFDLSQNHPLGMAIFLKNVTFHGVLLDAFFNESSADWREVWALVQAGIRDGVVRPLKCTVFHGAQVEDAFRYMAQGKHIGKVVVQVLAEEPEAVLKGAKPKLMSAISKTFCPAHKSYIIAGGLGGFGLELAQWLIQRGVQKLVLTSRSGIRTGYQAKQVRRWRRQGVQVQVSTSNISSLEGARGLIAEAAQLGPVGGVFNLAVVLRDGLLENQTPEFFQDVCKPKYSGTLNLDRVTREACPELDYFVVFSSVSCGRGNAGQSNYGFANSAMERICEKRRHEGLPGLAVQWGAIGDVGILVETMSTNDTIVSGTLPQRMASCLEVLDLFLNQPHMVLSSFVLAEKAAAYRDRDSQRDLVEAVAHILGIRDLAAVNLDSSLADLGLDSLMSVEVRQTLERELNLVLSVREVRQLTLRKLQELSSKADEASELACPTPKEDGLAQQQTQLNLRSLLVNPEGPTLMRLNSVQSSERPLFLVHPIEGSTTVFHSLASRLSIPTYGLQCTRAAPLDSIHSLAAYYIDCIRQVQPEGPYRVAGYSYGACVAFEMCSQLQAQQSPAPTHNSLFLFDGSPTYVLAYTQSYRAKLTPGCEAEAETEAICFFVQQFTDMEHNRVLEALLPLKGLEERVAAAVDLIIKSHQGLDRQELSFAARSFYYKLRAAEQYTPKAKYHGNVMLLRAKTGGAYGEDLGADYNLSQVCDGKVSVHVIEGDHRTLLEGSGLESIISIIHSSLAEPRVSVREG

[13] = biological target: T9, Fatty acid synthase; assay: FAS thioesterase domain inhibitors, dose response, biochemical, endpoint fluorescence intensity, uHTS hits (AID 624327); assay type: functional;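 also: fluorescence from hydrolysis of an O-methyl fluorescein acyl ester substrate by the enzyme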
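For AC50 in this document: cells exposed to compound for roughly 70 hours or longer before luminescence read.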

SMILES | IC50 [1] | IC50 [2] | IC50 [3] | IC50 [4] | EC50 [5] | IC50 [6] | EC50 [7] | EC50 [8] | EC50 [9] | EC50 [10] | AC50 [11] | IC50 [12] | IC50 [13]
O=C(O)c1ccc(-c2nc(O)c3c(-c4ccccc4)csc3n2)cc1 | 61.6 µM (active) | > 100 µM (inactive) | 56.1 µM (active) | 40.4 µM (active) | – | – | – | – | – | – | – | – | –
COc1nc(C)ccc1-c1noc(-c2cccs2)n1 | 9.82 µM (active) | 13 µM (active) | 32.7 µM (active) | 5.07 µM (active) | > 260 µM (inactive) | – | – | – | – | – | – | – | –
O=[N+]([O-])c1ccc(Nc2ccccc2O)c2nonc12 | – | – | – | – | – | 5.81 µM (active) | 24.4 µM (active) | 28.2 µM (active) | > 99 µM (inactive) | > 99 µM (inactive) | – | – | –
COc1ccc2nc(NC(=O)c3ccc([N+](=O)[O-])o3)sc2c1 | 22.9 µM (active) | 28.2 µM (active) | 13.8 µM (active) | 4.54 µM (active) | – | – | – | – | – | – | 1.96 µM (active) | 8.39 µM (active) | 14.5 µM (active)
O=[N+]([O-])c1ccc(S(=O)(=O)N[N-][C+]2CCCCC2)cc1 | – | – | – | – | – | – | – | – | 7.03 µM (active) | > 99 µM (inactive) | – | – | –
